Data on four molecules can be found in paper PMC5382279, “Glutaredoxin catalysis requires two distinct glutathione interaction sites” (Nature Communications, 2017).

Several values for one entry are separate records, joined by “and”; a condition that tells them apart may be missing. Equal values may be shown once. Numbered stars: 1 amine (or outer) side, 2 acyl side, 3 side chain; on linkers, the order of the positions; unused ones are H or OH. Square brackets hold non-standard residues; d marks the D form. Peptide text beside a SMILES is read from it. γGlu = O=C(O)[C@H](CCC(=O)[*:2])N[*:1]; Abu = CC[C@H](N)C(=O)O

Series [1] addresses T1, ScGrx7 (Saccharomyces cerevisiae, UniProt P38068, E170A).
T1 construct: gene GRX7; N-terminal MRGS(H)6 tag kept, E. coli XL1-Blue, pQE30/SCGRX7 double stop-codon construct
T1 sequence (P38068 33-203 E170A): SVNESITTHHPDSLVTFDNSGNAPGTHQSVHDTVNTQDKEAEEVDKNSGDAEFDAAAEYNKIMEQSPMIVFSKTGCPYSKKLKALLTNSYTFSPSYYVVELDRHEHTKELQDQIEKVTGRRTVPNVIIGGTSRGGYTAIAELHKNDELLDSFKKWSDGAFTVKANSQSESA
Description: coupled NADPH/glutathione reductase assay, […] nm, GSSCys assay. The class given is biochemical. Particulars: varied GSSCys 25-200 uM at fixed GSH 0.05-1.0 mM; 0.1 M Tris/HCl, 1 mM EDTA, pH 8.0, 25 C; ping-pong.

The target of series [2] is T2, ScGrx7 (Saccharomyces cerevisiae, UniProt P38068).
T2 construct: gene GRX7; N-terminal MRGS(H)6 tag kept, E. coli XL1-Blue, pQE30/SCGRX7 double stop-codon construct
T2 sequence (P38068 33-203): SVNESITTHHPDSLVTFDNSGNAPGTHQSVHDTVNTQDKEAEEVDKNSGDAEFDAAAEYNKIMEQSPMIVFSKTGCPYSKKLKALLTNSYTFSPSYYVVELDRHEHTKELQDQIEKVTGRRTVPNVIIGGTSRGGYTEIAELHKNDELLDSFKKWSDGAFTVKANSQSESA
The series is described as above. The class given is biochemical. The note with it: varied GSSCys 25-200 uM at fixed GSH 0.05-1.0 mM; 0.1 M Tris/HCl, 1 mM EDTA, pH 8.0, 25 C; ping-pong.

Series [3] has as its target T3, ScGrx7 (Saccharomyces cerevisiae, UniProt P38068, K105A).
T3 construct: gene GRX7; N-terminal MRGS(H)6 tag kept, E. coli XL1-Blue, pQE30/SCGRX7 double stop-codon construct
T3 sequence (P38068 33-203 K105A): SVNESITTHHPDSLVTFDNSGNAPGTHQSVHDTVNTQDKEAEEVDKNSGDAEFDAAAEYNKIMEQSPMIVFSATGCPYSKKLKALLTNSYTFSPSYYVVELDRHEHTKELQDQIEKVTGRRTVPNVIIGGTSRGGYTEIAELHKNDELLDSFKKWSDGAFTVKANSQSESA
The series is described as above. Particulars: varied GSSCys 25-200 uM at fixed GSH 0.05-1.0 mM; 0.1 M Tris/HCl, 1 mM EDTA, pH 8.0, 25 C; ping-pong. The class given is biochemical.

Series [4] addresses T4, ScGrx7 (Saccharomyces cerevisiae, UniProt P38068, E170K).
T4 construct: gene GRX7; N-terminal MRGS(H)6 tag kept, E. coli XL1-Blue, pQE30/SCGRX7 double stop-codon construct
T4 sequence (P38068 33-203 E170K): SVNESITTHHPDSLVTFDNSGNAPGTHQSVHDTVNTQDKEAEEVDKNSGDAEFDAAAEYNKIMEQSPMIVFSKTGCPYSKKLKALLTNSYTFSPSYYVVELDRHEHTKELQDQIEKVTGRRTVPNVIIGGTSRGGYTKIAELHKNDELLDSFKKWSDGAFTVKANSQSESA
The description is as above. The class given is biochemical. The note with it: varied GSSCys 25-200 uM at fixed GSH 0.05-1.0 mM; 0.1 M Tris/HCl, 1 mM EDTA, pH 8.0, 25 C; ping-pong.

For series [5], the target named is T5, ScGrx7 (Saccharomyces cerevisiae, UniProt P38068, K105E).
T5 construct: gene GRX7; N-terminal MRGS(H)6 tag kept, E. coli XL1-Blue, pQE30/SCGRX7 double stop-codon construct
T5 sequence (P38068 33-203 K105E): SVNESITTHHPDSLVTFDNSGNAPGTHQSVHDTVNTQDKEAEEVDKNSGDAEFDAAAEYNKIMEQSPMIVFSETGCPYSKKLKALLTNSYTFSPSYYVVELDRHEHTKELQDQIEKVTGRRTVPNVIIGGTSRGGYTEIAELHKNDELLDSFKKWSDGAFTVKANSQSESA
The series is described as above. The note with it: varied GSSCys 25-200 uM at fixed GSH 0.05-1.0 mM; 0.1 M Tris/HCl, 1 mM EDTA, pH 8.0, 25 C; ping-pong. Format: biochemical.

Series [6] concerns the target T2, ScGrx7. The series can be described thus: coupled NADPH/glutathione reductase assay, […] nm, HEDS assay. The class given is biochemical. Particulars: varied HEDS 90-920 uM at fixed GSH 0.3-1.5 mM; 0.1 M Tris/HCl, 1 mM EDTA, pH 8.0, 25 C; sequential pattern.
Series [7] has as its target T2, ScGrx7. Description: inhibition of HEDS or GSSEtOH assay. Particulars: up to 10 mM inhibitor; weak competitive inhibitor; HEDS or GSSEtOH as disulfide substrate with GSH. Format: biochemical.
Substrate in series [8]: N[C@@H](CCC(=O)N[C@@H](CS)C(=O)NCC(=O)O)C(=O)O
Description: purified protein, by the assay type. Details: HEDS assay, GR-coupled NADPH consumption at 340 nm, steady-state kinetics. Particulars: pH 8.0; 25.0 °C.

Substrate in series [9]: OCCSSCCO
Description: purified protein, by the assay type. The note with it: pH 8.0; 25.0 °C. Details: HEDS assay, GR-coupled NADPH consumption at 340 nm, steady-state kinetics.

Substrate in series [10]: N[C@@H](CCC(=O)N[C@@H](CS)C(=O)NCC(=O)O)C(=O)O
The series can be described thus: purified protein, by the assay type. Details: HEDS oxidoreductase assay, glutathione reductase coupled, NADPH consumption at 340 nm, pH 8.0, 25 °C. Particulars: pH 8.0; 25.0 °C.

Substrate in series [11]: OCCSSCCO
The series can be described thus: purified protein, by the assay type. Details: HEDS oxidoreductase assay, glutathione reductase coupled, NADPH consumption at 340 nm, pH 8.0, 25 °C. The note with it: pH 8.0; 25.0 °C.

As for `N[C@@H](CCC(=O)N[C@@H](CSSC[C@H](N)C(=O)O)C(=O)NCC(=O)O)C(=O)O` [GSSCys], the Km app entry at ScGrx7 [1] is “Km ^app values for GSSCys and GSH were reciprocally doubled and halved, respectively”; on ScGrx7 [2] it was “Selected kcat ^app and Km ^app values of ScGrx7 wild-type enzyme and K105X mutants”; at ScGrx7 [3] it was “all K105X mutants had increased Km ^app(GSSCys) values”; on ScGrx7 [4] it was “Km ^app values for GSSCys and GSH were reciprocally doubled and halved, respectively”; at ScGrx7 [5], “all K105X mutants had increased Km ^app(GSSCys) values”.

`OCCSSCCO` [HEDS]: at ScGrx7 [6], the Km app result was “Selected kcat ^app and Km ^app values of ScGrx7 wild-type enzyme and K105X mutants”.

For the molecule `CC[C@H](NC(=O)CC[C@H](N)C(=O)O)C(=O)NCC(=O)O` [ophthalmic acid, L-γ-glutamyl-L-α-aminobutyrylglycine] (γGlu-[Abu]-Gly-OH), the “% reduction of reaction velocity at up to 10 mM” value at ScGrx7 [7] is given as 10–20%.

B1: ScGrx7 (Saccharomyces cerevisiae S288C) (protein)
chain: SVNESITTHHPDSLVTFDNSGNAPGTHQSVHDTVNTQDKEAEEVDKNSGDAEFDAAAEYNKIMEQSPMIVFSKTGCPYSKKLKALLTNSYTFSPSYYVVELDRHEHTKELQDQIEKVTGRRTVPNVIIGGTSRGGYTEIAELHKNDELLDSFKKWSDGAFTVKANSQSESA
notes: N-terminal MRGS(H)6 tag kept, E. coli XL1-Blue, pQE30/SCGRX7 double stop-codon construct
The term Km denotes the substrate concentration at which the rate is half of its maximum. For B1, the Km in series [8] was 1210 ± 200 µM and 1230 ± 150 µM and 1120 ± 110 µM; in series [9], 2050 ± 200 µM and 1820 ± 300 µM and 3720 ± 1100 µM; in series [10], 1200 ± 100 µM and 2300 ± 500 µM; in series [11], 2300 ± 700 µM and 1500 ± 200 µM.
